# Measurements published in patent US11629201B2, “PSMA-binding agents and uses thereof” (ITM Isotope Technologies Munich SE, priority 2017, dated 2023).
# “And” between values parts separate entries of the source, which are not always exact repeats. Identical values can stand only once.
# Legend:
# [1] = test system: PC-3 PIP tumor; assay: Therapy study in PC-3 PIP tumor-bearing mice; format: in vivo; settings: for TGDI2 / TGDI5: control = 1
# Description: Mice of Groups B and D received 2 MBq of the radioligand (1 nmol/mouse), whereas mice of Groups C and E received 5 MBq of the radioligand (1 nmol/mouse). The mice were monitored by measuring body weights and the tumor size every other day over 12 weeks. Mice were euthanized when pre-defined endpoint criteria were reached, or when the study was terminated at Day 84. The relative body weight (RBW) was defined as [BWx/BW0], where BWx is the body weight in gram at a given day x and BW0 the body weight in gram at day 0. The tumor dimension was determined by measuring the longest tumor axis (L) and its perpendicular axis (W) with a digital caliper. The tumor volume (V) was calculated according to the equation [V=0.5*(L*W2)]. The relative tumor volume (RTV) was defined as [TVx/TV0], where TVx is the tumor volume in mm3 at a given day x and TV0 the tumor volume in mm3 at Day 0.
# The efficacy of the radionuclide therapy was expressed as the tumor growth delay (TGDx), which was calculated as the time required for the tumor volume to increase x-fold over the initial volume at the Day 0. The tumor growth delay index [TGDIx=TGDx(T)/TGDx(C)] was calculated as the TGDx ratio of treated mice (T) over control mice (C) for a 2-fold (x=2, TGD2) and 5-fold (x=5, TGD5) increase of the initial tumor volume. As a measure to identify undesired side effects, body weights were compared at the day when the first control mouse had to be euthanized. After euthanasia, kidneys, liver and the brain were collected and weighed. The organ ratios (kidney-to-brain and liver-to-brain) were calculated using the organ masses obtained at the day of euthanasia.
# The data was analyzed for significance as indicated in the result part using a one-way ANOVA with Tukey's multiple comparison post-test using GraphPad Prism software (version 7). A value of p<0.05 was considered statistically significant. Survival analysis was performed with Kaplan-Meier curves and a log-rank tests (Mantel Cox).
# [2] = n-Octanol/PBS distribution coefficient (log D); format: physicochemical; settings: radiolabeled ligand, 50 MBq/nmol, PBS pH 7.4
# Method: The radioligand (0.5 MBq; 10 pmol, 25 μL) was then added to a reagent tube containing 1475 μL of PBS pH 7.4 and 1500 μL of n-octanol. The vials were vortexed vigorously followed by a centrifugation step for phase separation.
# Determination of n-Octanol/PBS Distribution Coefficients (Log D Values). The distribution coefficients (log D values) of the ^64Cu-labeled radioligands (50 MBq/nmol) were determined by a shake-flask method using liquid-liquid extraction followed by phase separation as previously reported. Three experiments were performed with five replicates for each radioligand. Statistical significance of the data (p<0.05) was evaluated using an unpaired t-test (GraphPad Prism software, version 7).
# Determination of n-Octanol/PBS Distribution Coefficients (Log D Values). […] A sample of the radioligands was mixed with phosphate-buffered saline (PBS) and n-octanol followed by vigorous vortexing. […] Three experiments were performed with five replicates for each compound.
# [3] = test system: mouse plasma proteins; assay: Ultrafiltration assay, binding to mouse plasma proteins; format: in vitro ADME
# Method: Filter Assay. […] In addition, the radioligands were diluted in PBS (buffer solution without proteins) as a control experiment. Aliquots of the solutions were loaded onto an ultrafiltration device and centrifuged. The filtered activity was measured with a γ-counter and used for calculating the plasma protein-bound activity (retained on the filter membrane) as the percentage of total added activity. […] Statistical analysis (one-way ANOVA with Bonferroni's multiple comparison post-test) was performed using GraphPad Prism software, version 7. A p-value of <0.05 was considered statistically significant.
# [4] = test system: PSMA-positive PC-3 PIP cells; assay: Cell uptake and internalization in PSMA-positive PC-3 PIP cells; format: cell-based; settings: 4 h incubation, PC-3 PIP cells
# [5] = test system: PSMA-negative PC-3 flu cells; assay: Cell uptake in PSMA-negative PC-3 flu cells; format: cell-based
# Method: Cells were grown in RPMI cell culture medium supplemented with 10% fetal calf serum, L-glutamine, antibiotics and puromycin (2 μg/mL) at 37° C. and 5% CO2 (standard conditions). Routine cell culture was performed twice a week using PBS/EDTA (2 mM) for washing the cells and trypsin for detachment of the cells. The cells were seeded in 12-well plates (˜3×10^5 cells in 2 mL RPMI medium/well) allowing adhesion and growth overnight at standard conditions. The supernatant was removed and the cells washed with PBS pH 7.4 prior to the addition of RPMI medium without supplements (975 μL/well). […] After incubation, the cells were washed three times with ice-cold PBS and the total uptake of the radioligands was determined (PSMA-bound fraction on the surface and internalized fraction). The fraction of internalized radioligand was evaluated in cells washed with ice-cold PBS, followed by a 10 min incubation with stripping buffer (0.05 M glycine stripping buffer in 100 mM NaCl, pH 2.8) and an additional washing step with ice-cold PBS. […] After homogenization of the cell suspensions, the protein concentration was determined for each sample using a Micro BCA Protein Assay kit (Pierce, Therma Scientific). The results were expressed as percentage of total added radioactivity per […]. […]
# [6] = Stability of radioligands over time by RP-HPLC; format: physicochemical
# Method: Quality control of ^64Cu-labeled PSMA ligands (250 MBq in 120 μL; 50 MBq/nmol) was determined immediately after preparation (t=0 h) using RP-HPLC. The reaction mixtures were diluted in saline to an activity concentration of 250 MBq/500 μL and incubated at room temperature. The integrity of the compounds was investigated over one day (t=1 h, 4 h and 24 h, respectively). The amount of intact radioligand was quantified by integration of the product peak of the HPLC chromatograms in relation to the sum of all radioactive peaks of degradation products of unknown structure and traces of released ^64Cu which were set to 100%.
# The stability of the radioligands was determined over time using RP-HPLC. […] The radiolabeling efficiency of the ligands was determined immediately after preparation (t=0 h) and the integrity of the compounds was investigated after incubation for various periods (t=1 h, 4 h and 24 h, respectively) at room temperature. The amount of intact compound was quantified by integration of the product peak of the HPLC chromatograms in relation to the sum of all radioactive peaks of degradation products of unknown structure and traces of free ^177Lu, which were set to 100%.
# [7] = test system: PC-3 PIP/flu tumor-bearing mice; assay: Biodistribution studies in PC-3 PIP/flu tumor-bearing mice; settings: for Tumor-to-blood / Tumor-to-kidney / Tumor-to-liver: PC-3 PIP tumor
# [8] = non-decay-corrected biodistribution data up to 192 h p.i.
structure (smiles),measurement,setting,value
"O=C([O-])CN1CCN(CC(=O)[O-])CCN(CC(=O)NCC2CCC(C(=O)N[C@@H](Cc3ccc4ccccc4c3)C(=O)NCCCC[C@H](NC(=O)N[C@@H](CCC(=O)O)C(=O)O)C(=O)O)CC2)CCN(CC(=O)[O-])CC1.[177Lu+3] (some centres unmarked) [^177Lu-PSMA-617, reference compound]",first mouse of group euthanized,"[1]; 2 MBq/mouse (Groups B, D)",12 days
same,median survival,"[1]; 2 MBq/mouse (Groups B, D)",19 days
same,TGDI2,"[1]; 2 MBq/mouse (Groups B, D)",0.8 and 0.8 ± 0.3
same,TGDI5,"[1]; 2 MBq/mouse (Groups B, D)",1.4 and 1.4 ± 0.1
same,first mouse of group euthanized,"[1]; 5 MBq/mouse (Groups C, E)",26 days
same,median survival,"[1]; 5 MBq/mouse (Groups C, E)",32 days
same,TGDI2,"[1]; 5 MBq/mouse (Groups C, E)",2.1 ± 0.3
same,TGDI5,"[1]; 5 MBq/mouse (Groups C, E)",2.5 ± 0.3
same,n-octanol/PBS distribution coefficient (log D value),[2],−4.4±0.15
same,plasma protein-bound fraction,[3],9.3±1.1%
same,cell uptake,[4],58%
same,internalized fraction,[4],12%
same,uptake in PC-3 flu cells,[5],below 0.5%
same,intact compound,"[6]; after 4 h, absence of L-ascorbic acid",~86%
same,intact compound,"[6]; after 24 h, absence of L-ascorbic acid",< 2%
same,intact compound,"[6]; after 24 h, with L-ascorbic acid",> 98%
same,PC-3 PIP Tumor,[7]; 4 h p.i.,~56 % IA/g
same,Kidneys,[7]; 24 h p.i.,< 1 % IA/g
same,Tumor-to-blood,[7]; 24 h p.i.,2730 ± 195
same,Tumor-to-kidney,[7]; 24 h p.i.,49 ± 3.7
same,Tumor-to-liver,[7]; 24 h p.i.,528 ± 51
same,Tumor-to-blood,[7]; 48 h p.i.,3776 ± 585
same,Tumor-to-kidney,[7]; 48 h p.i.,81 ± 11
same,Tumor-to-liver,[7]; 48 h p.i.,710 ± 97
same,PC-3 PIP Tumor,[7]; 192 h p.i.,~20 % IA/g
same,AUC PC-3 PIP tumor,[7]; [8],3691 ± 156 % IA/g · h
same,AUC blood,[7]; [8],52 ± 1.5 % IA/g · h
same,AUC kidneys,[7]; [8],99 ± 11 % IA/g · h
same,AUC liver,[7]; [8],6.2 ± 1.6 % IA/g · h
same,Ratio of AUCs AUCTu-to-AUCBl,[7]; tumor to blood,71
same,Ratio of AUCs AUC-Tu-to-AUC-Ki,[7]; tumor to kidneys,37
same,Ratio of AUCs AUCTu-to-AUCLi,[7]; tumor to liver,592
